Data as given in PubChem BioAssay (NCI).
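Cells were grown in 96-well plates and exposed to each compound for 48 hours at five concentrations; endpoints were interpolated linearly between bracketing concentrations, or set to the highest concentration if not reached. GI50 = concentration required for 50% inhibition of growth. TGI denotes the concentration required for complete inhibition of growth.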

Assays:
Test in all cases: inhibition of tumour cell growth, NCI panel, 48 h
HOP-62 NSCLC = system: HOP-62 NSCLC
SF-295 CNS = system: SF-295 CNS
SR leukemia = system: SR leukemia
SNB-19 CNS = system: SNB-19 CNS
SK-MEL-5 melanoma = system: SK-MEL-5 melanoma
SW-620 colon = system: SW-620 colon
OVCAR-3 ovarian = system: OVCAR-3 ovarian
HCT-116 colon = system: HCT-116 colon
786-0 renal = system: 786-0 renal
NCI-H23 lung = system: NCI-H23 lung
HL-60(TB) leukemia = system: HL-60(TB) leukemia
RPMI-8226 leukemia = system: RPMI-8226 leukemia
UACC-62 melanoma = system: UACC-62 melanoma
NCI-H522 lung = system: NCI-H522 lung
MDA-MB-468 breast = system: MDA-MB-468 breast
OVCAR-4 ovarian = system: OVCAR-4 ovarian
KM12 colon = system: KM12 colon
TK-10 renal = system: TK-10 renal
SN12C renal = system: SN12C renal
CCRF-CEM leukemia = system: CCRF-CEM leukemia
NCI/ADR-RES ovarian = system: NCI/ADR-RES ovarian
PC-3 prostate = system: PC-3 prostate
MALME-3M melanoma = system: MALME-3M melanoma
A498 renal = system: A498 renal
HCT-15 colon = system: HCT-15 colon
SK-OV-3 ovarian = system: SK-OV-3 ovarian
A549 NSCLC = system: A549 NSCLC
NCI-H460 lung = system: NCI-H460 lung
RXF 393 renal = system: RXF 393 renal
CAKI-1 renal = system: CAKI-1 renal
NCI-H226 lung = system: NCI-H226 lung
SF-268 CNS = system: SF-268 CNS
MDA-MB-231 breast = system: MDA-MB-231 breast
MDA-MB-435 = system: MDA-MB-435
SNB-75 CNS = system: SNB-75 CNS
UACC-257 melanoma = system: UACC-257 melanoma
OVCAR-8 ovarian = system: OVCAR-8 ovarian
IGROV1 ovarian = system: IGROV1 ovarian
MOLT-4 leukemia = system: MOLT-4 leukemia
DU-145 prostate = system: DU-145 prostate
T-47D breast = system: T-47D breast
UO-31 renal = system: UO-31 renal
HS 578T breast = system: HS 578T breast
SK-MEL-28 melanoma = system: SK-MEL-28 melanoma
ACHN renal = system: ACHN renal
SK-MEL-2 melanoma = system: SK-MEL-2 melanoma
EKVX NSCLC = system: EKVX NSCLC
LOX IMVI melanoma = system: LOX IMVI melanoma
HOP-92 NSCLC = system: HOP-92 NSCLC
K-562 leukemia = system: K-562 leukemia
OVCAR-5 ovarian = system: OVCAR-5 ovarian
M14 melanoma = system: M14 melanoma
BT-549 breast = system: BT-549 breast
MCF7 breast = system: MCF7 breast
U251 CNS = system: U251 CNS
HCC-2998 colon = system: HCC-2998 colon
HT29 colon = system: HT29 colon
SF-539 CNS = system: SF-539 CNS
COLO 205 colon = system: COLO 205 colon

Molecule `OC1CCC(Cn2c(C(F)(F)F)cc3c(Cl)ncnc32)CC1` (stereo not drawn) has a GI50 (HOP-62 NSCLC) of 19.7 µM, a TGI (HOP-62 NSCLC) of 57.6 µM and a GI50 (SF-295 CNS) of 22.7 µM. It also gave a TGI (SF-295 CNS) of 84 µM, a GI50 (SR leukemia) of 2.14 µM and a TGI (SR leukemia) of 6.78 µM. The GI50 (SNB-19 CNS) was 13.4 µM, the TGI (SNB-19 CNS) was 26.8 µM and the GI50 (SK-MEL-5 melanoma) was 4.81 µM. The TGI (SK-MEL-5 melanoma) was 16.7 µM, the GI50 (SW-620 colon) was 12.2 µM and the TGI (SW-620 colon) was 38.8 µM. For the same molecule, the GI50 (OVCAR-3 ovarian) was 8.04 µM, the TGI (OVCAR-3 ovarian) was 29.1 µM and the GI50 (HCT-116 colon) was 3.56 µM. The TGI (HCT-116 colon) was 15.8 µM, the GI50 (786-0 renal) was 32.1 µM and the TGI (786-0 renal) was > 100 µM. It also gave a GI50 (NCI-H23 lung) of 3.08 µM, a TGI (NCI-H23 lung) of 11.4 µM and a GI50 (HL-60(TB) leukemia) of 2.62 µM. The TGI (HL-60(TB) leukemia) was 9.01 µM, the GI50 (RPMI-8226 leukemia) was 34 µM and the TGI (RPMI-8226 leukemia) was > 100 µM. It also gave a GI50 (UACC-62 melanoma) of 5.4 µM, a TGI (UACC-62 melanoma) of 19.3 µM and a GI50 (NCI-H522 lung) of 1.54 µM. The TGI (NCI-H522 lung) was 3.55 µM, the GI50 (MDA-MB-468 breast) was 2.14 µM and the TGI (MDA-MB-468 breast) was 5.69 µM. It also gave a GI50 (OVCAR-4 ovarian) of 17.8 µM, a TGI (OVCAR-4 ovarian) of 47.2 µM and a GI50 (KM12 colon) of 26.4 µM. For the same molecule, the TGI (KM12 colon) was 94.3 µM, the GI50 (TK-10 renal) was > 100 µM and the TGI (TK-10 renal) was > 100 µM. It also gave a GI50 (SN12C renal) of 5.36 µM, a TGI (SN12C renal) of 19.8 µM and a GI50 (CCRF-CEM leukemia) of 5.56 µM. For the same molecule, the TGI (CCRF-CEM leukemia) was > 100 µM, the GI50 (NCI/ADR-RES ovarian) was 26.1 µM and the TGI (NCI/ADR-RES ovarian) was > 100 µM. It also gave a GI50 (PC-3 prostate) of 9.01 µM, a TGI (PC-3 prostate) of 36.3 µM and a GI50 (MALME-3M melanoma) of 17.7 µM. The TGI (MALME-3M melanoma) was 64.5 µM, the GI50 (A498 renal) was > 100 µM and the TGI (A498 renal) was > 100 µM. For the same molecule, the GI50 (HCT-15 colon) was 3.69 µM, the TGI (HCT-15 colon) was 20.1 µM and the GI50 (SK-OV-3 ovarian) was 22.4 µM. The TGI (SK-OV-3 ovarian) was > 100 µM, the GI50 (A549 NSCLC) was 30.8 µM and the TGI (A549 NSCLC) was > 100 µM. The GI50 (NCI-H460 lung) was 4.76 µM, the TGI (NCI-H460 lung) was 16.6 µM and the GI50 (RXF 393 renal) was 12.5 µM. It also gave a TGI (RXF 393 renal) of 35 µM, a GI50 (CAKI-1 renal) of 16.8 µM and a TGI (CAKI-1 renal) of 52.8 µM. For the same molecule, the GI50 (NCI-H226 lung) was 23.4 µM, the TGI (NCI-H226 lung) was 79.7 µM and the GI50 (SF-268 CNS) was 2.52 µM. It also gave a TGI (SF-268 CNS) of 6.89 µM, a GI50 (MDA-MB-231 breast) of 4.45 µM and a TGI (MDA-MB-231 breast) of 20.1 µM. It also gave a GI50 (MDA-MB-435) of 12.1 µM, a TGI (MDA-MB-435) of 25.8 µM and a GI50 (SNB-75 CNS) of 10.8 µM. For the same molecule, the TGI (SNB-75 CNS) was 23.1 µM, the GI50 (UACC-257 melanoma) was 3.4 µM and the TGI (UACC-257 melanoma) was 14.1 µM. For the same molecule, the GI50 (OVCAR-8 ovarian) was 2.29 µM, the TGI (OVCAR-8 ovarian) was 5.39 µM and the GI50 (IGROV1 ovarian) was 1.97 µM. It also gave a TGI (IGROV1 ovarian) of 4.07 µM, a GI50 (MOLT-4 leukemia) of 2.77 µM and a TGI (MOLT-4 leukemia) of 8.15 µM. The GI50 (DU-145 prostate) was 7.87 µM, the TGI (DU-145 prostate) was 20.5 µM and the GI50 (T-47D breast) was 26.5 µM. The TGI (T-47D breast) was > 100 µM, the GI50 (UO-31 renal) was 15.1 µM and the TGI (UO-31 renal) was 65.8 µM. The GI50 (HS 578T breast) was 13.8 µM, the TGI (HS 578T breast) was 53.6 µM and the GI50 (SK-MEL-28 melanoma) was 9.38 µM. For the same molecule, the TGI (SK-MEL-28 melanoma) was 30.8 µM, the GI50 (ACHN renal) was 8.76 µM and the TGI (ACHN renal) was 49.9 µM. For the same molecule, the GI50 (SK-MEL-2 melanoma) was 13.2 µM, the TGI (SK-MEL-2 melanoma) was 27.9 µM and the GI50 (EKVX NSCLC) was 12.9 µM. The TGI (EKVX NSCLC) was 38.7 µM, the GI50 (LOX IMVI melanoma) was 1.71 µM and the TGI (LOX IMVI melanoma) was 3.15 µM. It also gave a GI50 (HOP-92 NSCLC) of 20.6 µM, a TGI (HOP-92 NSCLC) of 64.6 µM and a GI50 (K-562 leukemia) of 2.88 µM. The TGI (K-562 leukemia) was > 100 µM, the GI50 (OVCAR-5 ovarian) was > 100 µM and the TGI (OVCAR-5 ovarian) was > 100 µM. It also gave a GI50 (M14 melanoma) of 4.94 µM, a TGI (M14 melanoma) of 27 µM and a GI50 (BT-549 breast) of 13.1 µM. The TGI (BT-549 breast) was 27.9 µM, the GI50 (MCF7 breast) was 36.9 µM and the TGI (MCF7 breast) was > 100 µM. It also gave a GI50 (U251 CNS) of 3.21 µM, a TGI (U251 CNS) of 12.8 µM and a GI50 (HCC-2998 colon) of 1.8 µM. The TGI (HCC-2998 colon) was 3.33 µM, the GI50 (HT29 colon) was 15.6 µM and the TGI (HT29 colon) was > 100 µM. The GI50 (SF-539 CNS) was 17.7 µM, the TGI (SF-539 CNS) was 39 µM and the GI50 (COLO 205 colon) was 24.4 µM. For the same molecule, the TGI (COLO 205 colon) was > 100 µM.
